One test deals with Human LDL. Briefly: Antioxidant activity: oxidation of LDL by CuSO4 (T.BARS). In kind it is biochemical. The settings on record: 4.5 μM CuSO4, 6 hours incubation, T.BARS at 532 nm.
For a further test, the system named is plasma cholesterol. Briefly: Hypocholesterolemic activity in rats on hypercholesterolemic diet. In kind it is in vivo. The following applies: Rattus norvegicus; male rats, oral, 4 days, Altromin C 1061 hypercholesterolemic diet; plasma cholesterol on day 5 after 16 h fast; read-out: ED50 (dose which reduces the plasma cholesterol concentration by half relative to control animals). Here is the method: 2) Hypocholesterolemic Activity
Male rats (160-180 g) are subjected for 4 days to an Altromin C 1061 hypercholesterolemic diet, and concomitantly treated orally with the compounds suspended in carboxymethylcellulose at a concentration of 1%.
On day 5, the animals, fasted for 16 hours, are anesthetized with ethyl ether and exsanguinated by drawing blood at the abdominal aorta onto EDTA.
The blood is immediately centrifuged and the plasma stored at 4° C.
Plasma cholesterol is then assayed by the CHOP-PAP method (Boehringer-Mannheim Ref. 237574).
The median effective dose (ED50) corresponds to the dose which reduces the plasma cholesterol concentration by half relative to control animals.

In test [1] the target is ACAT (acyl-CoA:cholesterol O-acyltransferase enzyme). As to the kind of experiment: Inhibition of ACAT in vitro (technique of H. Chautan et al.). Format: biochemical. The following applies: read-out: IC50 (50% inhibitory concentration), ACAT inhibition. An excerpt: The compounds were studied for their inhibitory effect on ACAT and hypocholesterolemic effect in rats on the one hand and for their antioxidant effect on the other hand.

The subject of test [2] is hepatic microsomal lipids (rat liver microsomes). As to the kind of experiment: Antioxidant activity: chemical peroxidation of rat liver microsomes (T.BARS). In kind it is biochemical. The following applies: Fe3+/ADP/dihydroxyfumaric acid. An excerpt: In the presence of Fe^3+ and ADP, dihydroxyfumaric acid undergoes an autoxidation which generates oxygen free radicals. The latter bring about the peroxidation of hepatic microsomal lipids.

A value given as a limit tells only on which side of the number the result lay.

`CCCCCCCCCCCCC(C)(C)C(=O)NCC(=O)Nc1cc(C)c(O)c(C)c1C` [Compound 2, N-(α,α,-dimethyl)tetradecanamido-2',3',5'-trimethyl-4'-hydroxyglycylanilide]: the IC50 amounted to 1000 nM in the test with Human LDL, 740 nM in test [1] and 500 nM in test [2]. Besides, in the test on plasma cholesterol, the ED50 is 3 mg/kg.
For the compound `CCCCCCCCCCCCSC(C)C(=O)NCC(=O)Nc1cc(C)c(O)c(C)c1C` (centres unmarked) [Compound 1, N-(2-n-dodecylthio)propionamido-2',3',5'-trimethyl-4'-hydroxyglycylanilide], the IC50 in the test on Human LDL was 5000 nM; in test [1], 1200 nM; in test [2] it was 3000 nM. In addition, the ED50 in the test with plasma cholesterol worked out at 1 mg/kg.
In the same order, the values of `CCCCCCCCCCCCSC(C)(C)C(=O)NCC(=O)Nc1cc(C)c(O)c(C)c1C` [Compound 5, N-(α-n-dodecylthio)isobutyramido-2',3',5'-trimethyl-4'-hydroxyglycylanilide] are 3000 nM, 620 nM, 300 nM and 2.5 mg/kg.
The matching figures for `CCCCCCCCCCCCSC(C)C(=O)N(C)CC(=O)Nc1cc(C)c(O)c(C)c1C` (stereo not drawn) [Compound 8, N-methyl-N-(α-n-dodecylthio)propionamido-2',3',5'-trimethyl-4'-hydroxyglycylanilide]: 3000 nM, 280 nM, 500 nM and 4 mg/kg.
For `CCCCCCCCCCC(C)(C)C(=O)Nc1c(OC)cc(OC)cc1OC` [CI 976, reference compound], the IC50 was 100000 nM in the test on Human LDL and > 10000 nM in test [2]. Besides, the ED50 in the test with plasma cholesterol turned out to be 7.2 mg/kg.
The matching figures for `CCCCCCCN(CCCCCSc1nc(-c2ccccc2)c(-c2ccccc2)[nH]1)C(=O)Nc1ccc(F)cc1F` [DUP 128, reference compound]: 30000 nM, > 10000 nM and 1.4 mg/kg.
With `CCCCCCCCCCCCSC(C)(C)C(=O)N(C)CC(=O)Nc1cc(C)c(O)c(C)c1C` [Compound 3, N-methyl-N-(α-n-dodecylthio)isobutyramido-2',3',5'-trimethyl-4'-hydroxyglycylanilide], the IC50 with Human LDL stood at 5000 nM; in test [1] it was 160 nM; in test [2], 500 nM. Moreover, in the test on plasma cholesterol, the ED50 is < 2.5 mg/kg.

Values taken from patent publication US5760087A, “Glycylanilide derivatives, their preparation and their application in therapy” (Pierre Fabre Medicament, priority 1995, dated 1998).
